Experimental data: US8940863B2, “Selective anticancer chimeric peptides which bind neuropilin receptor” (Stella Pharma Corporation, priority 2008, dated 2015)
Non-standard residues stand in square brackets, D forms with d. Residues, ends and D or L forms follow the SMILES beside them.

What was measured:
[1] = test system: T47D breast cancer cells; assay: Membrane permeabilization (calcein); format: cell-based, human; settings: 10 μM, 0 to 15 minutes
Protocol: Furthermore, after addition of TfR-lytic chimeric peptide at concentration of 10 μM, the cells in calcein solution were observed after 0 minute, five minutes, 10 minutes and 15 minutes.

[2] = test system: PE cells (normal cells); assay: Annexin V and caspase 3,7 flow cytometry; format: cell-based; settings: 10 μM, two hours
[3] = test system: T47D; assay: Cell viability assay (WST-8); format: cell-based, human; settings: for IC50: 72 h
Description: (§1) Correlation between IC50 values was observed.

[4] = test system: HC cell (hepatocyte cell); assay: Cell viability assay (WST-8); format: cell-based, human; settings: 72 h
Description: as §1

[5] = test system: SK-BR-3
[6] = test system: MRC-5; settings: 72 h
[7] = test system: LNCaP; settings: for IC50: 72 h
[8] = test system: T47D; assay: Short-exposure killing of cancer cells (WST-8); format: cell-based, human; settings: 1 to 180 minutes exposure
Protocol: The cells were further cultured for 72 hours.

[9] = test system: MDA-MB-231
[10] = test system: PE cell (pancreatic epidermal); assay: Cell viability assay (WST-8); format: cell-based; settings: 72 h
Description: as §1

[11] = test system: COLO587; assay: Cell viability assay (WST-8); format: cell-based
Description: as §1

[12] = test system: SN-19; assay: Cell viability assay (WST-8); format: cell-based
Description: as §1

[13] = test system: U251
[14] = test system: T47D; assay: Annexin V and caspase 3,7 flow cytometry; format: cell-based, human; settings: 10 μM, two hours
Protocol: T47D and PE cells were incubated with TfR-lytic chimeric peptide (10 μM) and lytic peptide (10 μM) for two hours. Annexin V (FIG. 26A) and caspase 3,7 activity (FIG. 26B) were detected in the green channel, and propidium iodide staining was detected in the red channel, and flow cytometry analysis was performed. In T47D cells treated with TfR-lytic chimeric peptide, the ratio of the right half panel showing Annexin V-positive cells and caspase 3,7-activated cells increased.

[15] = test system: OE19; settings: 72 h
[16] = test system: HEK293; settings: 72 h
[17] = test system: U937; settings: 72 h
[18] = test system: BxPC-3; settings: 72 h

SMILES: CSCC[C@H](NC(=O)[C@@H]1CCCN1C(=O)[C@@H]1CCCN1C(=O)[C@H](CCCNC(=N)N)NC(=O)[C@H](Cc1c[nH]cn1)NC(=O)[C@@H](N)[C@@H](C)O)C(=O)N[C@@H](Cc1c[nH]c2ccccc12)C(=O)N[C@@H](CO)C(=O)N1CCC[C@H]1C(=O)N[C@H](C(=O)N[C@@H](Cc1c[nH]c2ccccc12)C(=O)N1CCC[C@H]1C(=O)NCC(=O)NCC(=O)NCC(=O)N[C@@H](CCCCN)C(=O)N[C@@H](CC(C)C)C(=O)N[C@H](CC(C)C)C(=O)N[C@@H](CC(C)C)C(=O)N[C@@H](CCCCN)C(=O)N[C@H](CC(C)C)C(=O)N[C@@H](CC(C)C)C(=O)N[C@H](CCCCN)C(=O)N[C@H](CCCCN)C(=O)N[C@@H](CC(C)C)C(=O)N[C@@H](CC(C)C)C(=O)N[C@@H](CCCCN)C(=O)N[C@H](CC(C)C)C(=O)N[C@@H](CC(C)C)C(=O)N[C@@H](CCCCN)C(=O)N[C@@H](CCCCN)C(=O)N[C@@H](CCCCN)C(=O)O)C(C)C [TfR-lytic peptide] (H-THRPPMWSPVWPGGGKL[dL]LK[dL]L[dK][dK]LLK[dL]LKKK-OH; N-terminus and C-terminus assumed)
- membrane permeation [1]: permeated the membrane was observed
- percentage of Annexin V-positive cells and caspase 3,7-activated cells [2]: did not increase
- IC50 [3]: 4.8 µM
- IC50 ratio Lytic/TfR-lytic ([3]; T47D): 3.8
- IC50 [4]: > 20 µM
- IC50 ([5]; 72 h): 5.3 µM
- IC50 ratio Lytic/TfR-lytic ([5]; SK-BR-3): 5.0
- IC50 [6]: > 20 µM
- IC50 [7]: 6.2 µM
- IC50 ratio Lytic/TfR-lytic ([7]; LNCaP): 2.7
- rapid killing of cancer cells [8]: rapidly kill T47D cancer cells
- IC50 ([9]; 72 h): 6.7 µM
- IC50 ratio Lytic/TfR-lytic ([9]; MDA-MB-231): 4.4
- IC50 [10]: > 20 µM
- IC50 ([11]; 72 h): 6.9 µM
- IC50 ratio Lytic/TfR-lytic ([11]; COLO587): 2.0
- IC50 ([12]; 72 h): 8.2 µM
- IC50 ratio Lytic/TfR-lytic ([12]; SN-19): 3.1
- IC50 ([13]; 72 h): 6.8 µM
- IC50 ratio Lytic/TfR-lytic ([13]; U251): 2.8
- ratio of Annexin V-positive cells and caspase 3,7-activated cells [14]: increased

SMILES: CC(C)C[C@H](NC(=O)[C@H](CC(C)C)NC(=O)[C@@H](CCCCN)NC(=O)[C@@H](CCCCN)NC(=O)[C@H](CC(C)C)NC(=O)[C@@H](CC(C)C)NC(=O)[C@H](CCCCN)NC(=O)[C@H](CC(C)C)NC(=O)[C@@H](CC(C)C)NC(=O)[C@H](CC(C)C)NC(=O)[C@H](CCCCN)NC(=O)CNC(=O)CNC(=O)CNC(=O)[C@H](CCCNC(=N)N)NC(=O)[C@@H]1CCCN1C(=O)[C@@H]1CCCN1C(=O)[C@H](CC(C)C)NC(=O)[C@H](Cc1c[nH]c2ccccc12)NC(=O)[C@@H](NC(=O)[C@H](C)N)[C@@H](C)O)C(=O)N[C@@H](CCCCN)C(=O)N[C@H](CC(C)C)C(=O)N[C@@H](CC(C)C)C(=O)N[C@@H](CCCCN)C(=O)N[C@@H](CCCCN)C(=O)N[C@@H](CCCCN)C(=O)O [VEGFR2-Lytic] (H-ATWLPPRGGGKL[dL]LK[dL]L[dK][dK]LLK[dL]LKKK-OH; N-terminus and C-terminus assumed)
- IC50 [3]: 6.4 µM
- IC50 [15]: 7.1 µM
- IC50 [6]: > 20 µM
- IC50 [7]: 8.9 µM
- IC50 [16]: > 20 µM
- IC50 [17]: 3.5 µM
- IC50 [18]: 12.2 µM
